This is an account of results in patent publication US8063071B2 (GlaxoSmithKline, LLC, priority 2007, dated 2011).

Structures can show the parent of a compound that is named as a salt.

One assay concerns the target T1, Recombinant human IKKβ (residues 1-737) (Homo sapiens, UniProt O14920).
T1 construct: Recombinant human IKKβ (residues 1-737); GST (C); made in house
T1 sequence (O14920 1-737): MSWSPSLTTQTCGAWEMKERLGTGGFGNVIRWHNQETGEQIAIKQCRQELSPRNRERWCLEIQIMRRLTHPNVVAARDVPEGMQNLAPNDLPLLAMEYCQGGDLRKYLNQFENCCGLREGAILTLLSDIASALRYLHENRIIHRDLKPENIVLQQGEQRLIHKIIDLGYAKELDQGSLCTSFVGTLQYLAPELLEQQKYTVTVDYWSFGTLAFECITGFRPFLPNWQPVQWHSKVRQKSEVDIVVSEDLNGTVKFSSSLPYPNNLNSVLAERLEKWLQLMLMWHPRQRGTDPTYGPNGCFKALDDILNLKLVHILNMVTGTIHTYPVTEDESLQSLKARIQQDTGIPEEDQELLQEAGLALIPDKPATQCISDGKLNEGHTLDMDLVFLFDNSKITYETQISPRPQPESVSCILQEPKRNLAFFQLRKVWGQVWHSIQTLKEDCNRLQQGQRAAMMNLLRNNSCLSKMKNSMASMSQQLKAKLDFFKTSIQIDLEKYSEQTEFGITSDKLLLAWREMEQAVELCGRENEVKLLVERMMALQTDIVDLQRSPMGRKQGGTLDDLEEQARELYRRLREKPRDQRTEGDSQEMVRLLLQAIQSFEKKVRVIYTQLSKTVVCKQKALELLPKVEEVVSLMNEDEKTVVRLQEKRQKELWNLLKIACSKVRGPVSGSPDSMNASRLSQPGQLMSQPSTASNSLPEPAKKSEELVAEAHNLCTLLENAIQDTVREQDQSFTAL
The experiment in a line: IKK2 assay (TR-FRET). Conditions: ATP 1 μM final, read-out: pIC50 against IKK2 (converted). The class given is biochemical. The method, then:
Recombinant human IKKβ (residues 1-737) was expressed in baculovirus as a C-terminal GST-tagged fusion protein, and its activity was assessed using a time-resolved fluorescence resonance energy transfer (TR-FRET) assay. Briefly, IKK2 (0.5 nM-5 nM final) diluted in assay buffer (50 mM HEPES, 10 mM MgCl2, 1 mM CHAPS pH 7.4 with 1 mM DTT and 0.01% w/v BSA) was added to wells containing various concentrations of compound or DMSO vehicle (1.7% final). The reaction was initiated by the addition of GST-IB substrate (25 nM final)/ATP (1 μM final), in a total volume of 6 μl. The reaction was incubated for 15 minutes at room temperature, then terminated by the addition of 3 μl of detection reagent in buffer containing 50 mM EDTA (100 mM HEPES pH 7.4, 150 mM NaCl, 50 mM EDTA and 0.01% w/v BSA) containing antiphosphoserine-IB-32/36 monoclonal antibody 12C2 (Cell Signalling Technology, Beverly Mass., USA) labelled with W-1024 europium chelate (Wallac OY, Turku, Finland), and an APC-labelled anti-GST antibody (Prozyme, San Leandro, Calif., USA) was added and the reaction was further incubated for 60 minutes at room temperature. The degree of phosphorylation of GST-IB was measured using a BMG Rubystar plate reader (BMG Labtech, Aylesbury, UK) as a ratio of specific 665 nm energy transfer signal to reference europium 620 nm signal.
Consider `CCS(=O)(=O)N1CCC(c2c[nH]c3c(C(N)=O)cc(-c4cccc(CNOC)c4)cc23)CC1` [Example 391, 3-[1-(ethylsulfonyl)-4-piperidinyl]-5-(3-{[(methyloxy)amino]methyl}phenyl)-1H-indole-7-carboxamide], for which the IC50 was not above 10 µM.
In the case of `CC(C)S(=O)(=O)N1CCC(c2c[nH]c3c(C(N)=O)cc(-c4csc(CN(C)CC(N)=O)c4)cc23)CC1` [Example 398, 5-(5-{[(2-amino-2-oxoethyl)(methyl)amino]methyl}-3-thienyl)-3-{1-[(1-methylethyl)sulfonyl]-4-piperidinyl}-1H-indole-7-carboxamide], the IC50 is not above 10 µM.
Same read-out and setting: to `CCS(=O)(=O)N1CCC(c2c[nH]c3c(C(N)=O)cc(-c4csc(CN5CCCC5COC)c4)cc23)CC1` (centres unmarked) [Example 405, 3-[1-(ethylsulfonyl)-4-piperidinyl]-5-[5-({2-[(methyloxy)methyl]-1-pyrrolidinyl}methyl)-3-thienyl]-1H-indole-7-carboxamide trifluoroacetate] belongs not above 10 µM; to `CCS(=O)(=O)N1CCC(c2c[nH]c3c(C(N)=O)cc(-c4csc(CN5CCCC(C(F)(F)F)C5)c4)cc23)CC1` (centres unmarked) [Example 407, 3-[1-(ethylsulfonyl)-4-piperidinyl]-5-(5-{[3-(trifluoromethyl)-1-piperidinyl]methyl}-3-thienyl)-1H-indole-7-carboxamide trifluoroacetate], not above 10 µM.
In the case of `CCS(=O)(=O)N1CCC(c2c[nH]c3c(C(N)=O)cc(-c4csc(CN(C)CCNC(C)=O)c4)cc23)CC1` [Example 410, 5-(5-{[[2-(acetylamino)ethyl](methyl)amino]methyl}-3-thienyl)-3-[1-(ethylsulfonyl)-4-piperidinyl]-1H-indole-7-carboxamide trifluoroacetate], the IC50 is not above 10 µM.
Consider `CCS(=O)(=O)N1CCC(c2c[nH]c3c(C(N)=O)cc(-c4csc(CN(C)[C@@H]5CCC[C@H]5O)c4)cc23)CC1` [Example 411, 3-[1-(ethylsulfonyl)-4-piperidinyl]-5-(5-{[[(1R,2R)-2-hydroxycyclopentyl](methyl)amino]methyl}-3-thienyl)-1H-indole-7-carboxamide trifluoroacetate], for which the IC50 is not above 10 µM.
For `CCS(=O)(=O)N1CCC(c2c[nH]c3c(C(N)=O)cc(-c4csc(CN(C)C[C@H](C)O)c4)cc23)CC1` [Example 413, 3-[1-(ethylsulfonyl)-4-piperidinyl]-5-(5-{[[(2S)-2-hydroxypropyl](methyl)amino]methyl}-3-thienyl)-1H-indole-7-carboxamide trifluoroacetate], the IC50 was not above 10 µM.
In the case of `CCS(=O)(=O)N1CCC(c2c[nH]c3c(C(N)=O)cc(-c4csc(CN(C)C[C@H]5CCCO5)c4)cc23)CC1` [Example 414, 3-[1-(ethylsulfonyl)-4-piperidinyl]-5-[5-({methyl[(2R)-tetrahydro-2-furanylmethyl]amino}methyl)-3-thienyl]-1H-indole-7-carboxamide trifluoroacetate], the IC50 was not above 10 µM.
Regarding `CCS(=O)(=O)N1CCC(c2c[nH]c3c(C(N)=O)cc(-c4csc(CN(C)CCOCCO)c4)cc23)CC1` [Example 415, 3-[1-(ethylsulfonyl)-4-piperidinyl]-5-(5-{[{2-[(2-hydroxyethyl)oxy]ethyl}(methyl)amino]methyl}-3-thienyl)-1H-indole-7-carboxamide trifluoroacetate], the IC50 is not above 10 µM.
For `CCS(=O)(=O)N1CCC(c2c[nH]c3c(C(N)=O)cc(-c4ccc5c(c4)CN(C(C)C(C)C)C5)cc23)CC1` (centres unmarked) [Example 421, 5-[2-(1,2-dimethylpropyl)-2,3-dihydro-1H-isoindol-5-yl]-3-[1-(ethylsulfonyl)-4-piperidinyl]-1H-indole-7-carboxamide], the IC50 is not above 10 µM.
On to `CCC(C)N1Cc2ccc(-c3cc(C(N)=O)c4[nH]cc(C5CCN(S(=O)(=O)CC)CC5)c4c3)cc2C1` (centres unmarked) [Example 422, 3-[1-(ethylsulfonyl)-4-piperidinyl]-5-[2-(1-methylpropyl)-2,3-dihydro-1H-isoindol-5-yl]-1H-indole-7-carboxamide], for which the IC50 was not above 10 µM.
In the case of `CCC(CC)N1Cc2ccc(-c3cc(C(N)=O)c4[nH]cc(C5CCN(S(=O)(=O)CC)CC5)c4c3)cc2C1` [Example 423, 5-[2-(1-ethylpropyl)-2,3-dihydro-1H-isoindol-5-yl]-3-[1-(ethylsulfonyl)-4-piperidinyl]-1H-indole-7-carboxamide], the IC50 is not above 10 µM.
In the case of `CCS(=O)(=O)N1CCC(c2c[nH]c3c(C(N)=O)cc(-c4ccc5c(c4)CN(C4CCCC4)C5)cc23)CC1` [Example 424, 5-(2-cyclopentyl-2,3-dihydro-1H-isoindol-5-yl)-3-[1-(ethylsulfonyl)-4-piperidinyl]-1H-indole-7-carboxamide], the IC50 was not above 10 µM.
The same measure, in the same setting: with `CCS(=O)(=O)N1CCC(c2c[nH]c3c(C(N)=O)cc(-c4ccc5c(c4)CN(CC4CC4)C5)cc23)CC1` [Example 425, 5-[2-(cyclopropylmethyl)-2,3-dihydro-1H-isoindol-5-yl]-3-[1-(ethylsulfonyl)-4-piperidinyl]-1H-indole-7-carboxamide] the figure was not above 10 µM.
Take `CCS(=O)(=O)N1CCC(c2c[nH]c3c(C(N)=O)cc(-c4ccc5c(c4)CN(CC(C)(C)C)C5)cc23)CC1` [Example 426, 5-[2-(2,2-dimethylpropyl)-2,3-dihydro-1H-isoindol-5-yl]-3-[1-(ethylsulfonyl)-4-piperidinyl]-1H-indole-7-carboxamide]: the IC50 was not above 10 µM.
Take `CCS(=O)(=O)N1CCC(c2c[nH]c3c(C(N)=O)cc(-c4ccc5c(c4)CN(C(=O)NS(=O)(=O)c4ccccc4)C5)cc23)CC1` [Example 428, 3-[1-(ethylsulfonyl)-4-piperidinyl]-5-(2-{[(phenylsulfonyl)amino]carbonyl}-2,3-dihydro-1H-isoindol-5-yl)-1H-indole-7-carboxamide]: the IC50 was not above 10 µM.

Another assay relates to human monocyte stimulated cytokine production (TNF-α). The experiment in a line: Monocyte assay (LPS-stimulated TNF-α production). The class given is cell-based. The following applies: 24 h, 200 ng/mL LPS, TNF-α by ELISA. The method, then:
Effect of IKK-β inhibition on human monocyte stimulated cytokine production was assessed as follows: Monocytes were isolated from heparinized whole blood by Ficoll gradient, followed by purification of CD14+ cells using MACS magnetic cell separation beads. Isolated monocytes were then adhered to 96-well culture plates at 1×10^6 cells/mL in RPMI 1640 10% FBS (JRH Biosciences, Lenexa Kans.) for 2 h. Test compounds are added to the wells 30 minutes prior to stimulation with a final vehicle concentration of 0.1% DMSO. Monocytes were activated by the addition of 200 ng/mL endotoxin (LPS; E. coli serotype 026:B6)(Sigma, St. Louis, Mo.) and incubated for 24 hrs at 37 C. Cell-free supernates were analyzed by ELISA for TNF-α using Pharmingen matched pair Abs. Viability of the cells was determined by 10% trypan blue exclusion.
Background: ELISA stands for enzyme-linked immunosorbent assay.
`CCS(=O)(=O)N1CCC(c2c[nH]c3c(C(N)=O)cc(-c4ccc5c(c4)C(NCC(C)C)CCC5)cc23)CC1` (centres unmarked) [Example 34, 3-[1-(ethylsulfonyl)-4-piperidinyl]-5-{8-[(2-methylpropyl)amino]-5,6,7,8-tetrahydro-2-naphthalenyl}-1H-indole-7-carboxamide trifluoroacetate]: the IC50 was more than 1 µM.
For the compound `CCS(=O)(=O)N1CCC(c2c[nH]c3c(C(N)=O)cc(-c4csc(CNCC(C)(C)C)c4)cc23)CC1` [Example 117, 5-(5-{[(2,2-dimethylpropyl)amino]methyl}-3-thienyl)-3-[1-(ethylsulfonyl)-4-piperidinyl]-1H-indole-7-carboxamide trifluoroacetate], the IC50 was not above 1.5 µM.

The assay is the same for the next values; noted with them: read-out: inhibition at 300 nM in the monocyte assay.
In the case of `CCS(=O)(=O)N1CCC(c2c[nH]c3c(C(N)=O)cc(-c4cc(CNC(C)C)c5c(c4)OCC5)cc23)CC1` [Example 59, 3-[1-(ethylsulfonyl)-4-piperidinyl]-5-(4-{[(1-methylethyl)amino]methyl}-2,3-dihydro-1-benzofuran-6-yl)-1H-indole-7-carboxamide], the inhibition (commonly how much of the control response was suppressed) at 0.3 µM was 0 to 60%.
`CCS(=O)(=O)N1CCC(c2c[nH]c3c(C(N)=O)cc(-c4csc(CN5CCCC5CC(C)C)c4)cc23)CC1` (centres unmarked) [Example 97, 3-[1-(ethylsulfonyl)-4-piperidinyl]-5-(5-{[2-(2-methylpropyl)-1-pyrrolidinyl]methyl}-3-thienyl)-1H-indole-7-carboxamide]: the inhibition at 0.3 µM is 0 to 60%.
